How the values were obtained:
[1] = system: wild-type HIV-1 (NL4-3 strain); assay: Cell-based antiviral assay; conditions: for fold less active than 12a in antiviral assays: compared with 12a
wild-type HIV-1 protease = wild-type HIV-1 protease (Human immunodeficiency virus type 1 group M subtype B, UniProt P12497, Q495K); format: biochemical, HIV-1 (NL4-3 strain); conditions: for fold less active than the corresponding tert-leucine analogue: 12b vs 12a, 15b vs 15a, inhibitory potency
HIV-1 protease I50V/A71V = HIV-1 protease I50V/A71V (Human immunodeficiency virus type 1 group M subtype B, UniProt P12497, A559V/I538V/Q495K); format: biochemical, HIV-1 (NL4-3 strain); conditions: Ki compared with 12a

Cc1cccc(C)c1OCC(=O)N[C@@H](Cc1ccccc1)C[C@H](O)[C@H](Cc1ccccc1)NC(=O)O[C@H]1CO[C@H]2OCC[C@H]21 [Compound 5, reference compound]
fold better antiviral potency than 4 ([1]; compared with compound 4): 2 fold

COC(=O)N[C@H](C(=O)N[C@@H](Cc1ccccc1)[C@@H](O)C[C@H](Cc1ccccc1)NC(=O)O[C@H]1CO[C@H]2OCC[C@H]21)C(C)(C)C [Compound 12a, (3R,3aS,6aR)-Hexahydrofuro[2,3-b]furan-3-yl ((2S,4S,5S)-4-hydroxy-5-((S)-2-((methoxycarbonyl)amino)-3,3-dimethylbutanamido)-1,6-diphenylhexan-2-yl)carbamate]
fold more potent than 15a in antiviral assays ([1]; wild-type HIV-1, compared with 15a): 3 fold

COC(=O)NC1(C(=O)N[C@@H](Cc2ccccc2)[C@@H](O)C[C@H](Cc2ccccc2)NC(=O)O[C@H]2CO[C@H]3OCC[C@H]32)CCCC1 [Compound 12b, (3R,3aS,6aR)-Hexahydrofuro[2,3-b]furan-3-yl ((2S,4S,5S)-4-hydroxy-5-(1-((methoxycarbonyl)amino)cyclopentane-1-carboxamido)-1,6-diphenylhexan-2-yl)carbamate]
fold less active than the corresponding tert-leucine analogue (wild-type HIV-1 protease): > 2500 fold

COC(=O)N[C@@H](C)C(=O)N[C@@H](Cc1ccccc1)[C@@H](O)C[C@H](Cc1ccccc1)NC(=O)O[C@H]1CO[C@H]2OCC[C@H]21 [Compound 12d, (3R,3aS,6aR)-Hexahydrofuro[2,3-b]furan-3-yl ((2S,4S,5S)-4-hydroxy-5-((S)-2-((methoxycarbonyl)amino)propanamido)-1,6-diphenylhexan-2-yl)carbamate]
fold less active than 12a in antiviral assays [1]: 6 fold

COC(=O)N[C@H](C(=O)N[C@@H](Cc1ccccc1)[C@@H](O)C[C@H](Cc1ccccc1)NC(=O)O[C@H]1CO[C@H]2OCC[C@H]21)C(C)C [Compound 12e, (3R,3aS,6aR)-Hexahydrofuro[2,3-b]furan-3-yl ((2S,4S,5S)-4-hydroxy-5-((S)-2-((methoxycarbonyl)amino)-3-methylbutanamido)-1,6-diphenylhexan-2-yl)carbamate]
fold less active against wild-type protease (wild-type HIV-1 protease; valine analogue compared with alanine analogue 12d / 12a): 4 fold | fold less active than 12a in antiviral assays [1]: 5 fold

COC(=O)N[C@H](C(=O)N[C@@H](Cc1ccccc1)C[C@H](O)[C@H](Cc1ccccc1)NC(=O)O[C@H]1CO[C@H]2OCC[C@H]21)C(C)(C)C [Compound 15a, (3R,3aS,6aR)-Hexahydrofuro[2,3-b]furan-3-yl ((2S,3S,5S)-3-hydroxy-5-((S)-2-((methoxycarbonyl)amino)-3,3-dimethylbutanamido)-1,6-diphenylhexan-2-yl)carbamate]
fold more active than 12a against the I50V/A71V variant (HIV-1 protease I50V/A71V): 4 fold

COC(=O)NC1(C(=O)N[C@@H](Cc2ccccc2)C[C@H](O)[C@H](Cc2ccccc2)NC(=O)O[C@H]2CO[C@H]3OCC[C@H]32)CCCC1 [Compound 15b, (3R,3aS,6aR)-Hexahydrofuro[2,3-b]furan-3-yl ((2S,3S,5S)-3-hydroxy-5-(1-((methoxycarbonyl)amino)cyclopentane-1-carboxamido)-1,6-diphenylhexan-2-yl)carbamate]
fold less active than the corresponding tert-leucine analogue (wild-type HIV-1 protease): 560 fold

From PMC7971191 (Journal of medicinal chemistry, 2020)
